From patent publication US20030166656A1, “Therapeutic or preventive medicines for mood disorders or anxiety disorders” (priority 2003, published 2003)

Key:
male SD rats = experiment: Elevated plus-maze test in rats (antianxiety effect); format: in vivo, rat; conditions: for antianxiety effect: overall conclusion in words, elevated plus-maze test
Source text: (§1) The isoquinoline derivative rep-resented by formula (I) has a marked effect in the forced swim test, which is the animal model for mood disorder, and in the elevated plus-maze test, which is the animal model for anxiety disorder. Thus, the isoquinoline derivative can be used as a drug for curing or preventing mood disorder or anxiety disorder of mammal and, in particular, human beings. It may also be used in manufacturing of a medicament for curing or preventing mood disorder or anxiety disorder. The evaluation using the above-described animal models can be conducted by a method described in published references [Nature vol. 266, 730 (1977) or Jpn. J. Psychopharmacol vol. 15, 125 (1995)], but the method is not limited to this.
Assessment of Antianxiety Effect by the Elevated Plus-Maze Test in Rats
The experiment was conducted on male SD rats. In the elevated plus-maze test, the elevated plus-maze (manufactured by NeuroScience, Inc.) consisting of closed arms and open arms was used. In the experiment, a rat was placed on an open arm 30 minutes after the drug administration (subcutaneous administration), and the number of entries to the open and closed arms and the time spent in the open arms were measured. The test was conducted for 3 minutes. The rat was assumed to have made entries when all four legs have entered the arm. The ratio of the time spent in the open arms and the ratio of the entries to the open arms were calculated according to the following equations:
Ratio of the time spent in the open arms (%)={(time spent in the open arms)/(total time)}×100
Ratio of the entries to the open arms (%)={(number of entries to the open arms)/(total number of entries)}×100
The vertical axis on the left indicates the ratio of the time spent in the open arms (%) and the ratio of the entries to the open arms (%). The vertical axis on the right indicates the total number of entries. The horizontal axis indicates a control group and treatment groups. Open columns indicate the ratio of the time spent in the open arms (%) and hatched columns indicate the ratio of the entries to the open arms (%). Closed circles indicate the total number of entries. All data are indicated by average ±standard error. In a significance test, the difference was assumed to be significant at a significance level of 5% or less by Dunnett's multiple comparison. In the test, the drug is assumed to have an antianxiety effect when there are an increase in time spent on open arms and an increase in ratio of entries to open arms under administration.

male ICR mice = experiment: Forced swim test in mice (antidepressant effect); format: in vivo, mouse; conditions: for antidepressant effect: overall conclusion in words, forced swim test
Source text: as §1
Assessment of antidepressant effect by the forced swim test in mice
In the experiment, male ICR mice were used. In the forced swim test, the tank for forced swim used was a transparent cylindrical tank made of plastic (inner diameter: 10 cm, height: 30 cm), and water at 25° C. was contained up to 14 cm in height. A mouse was placed in water, and its swimming time during 2 to 6 minutes after placement was measured. The drug was subcutaneously administered 30 minutes before testing. The vertical axis indicates the swimming time (sec) during the measurement time (4 min). The open column indicates a saline-treated group and the hatched columns indicate Compound 1 treatment groups. All data are indicated by average ±standard error. In a significance test, the difference was assumed to be significant at a significance level of 5% or less by Dunnett's multiple comparison. In the test, the drug is assumed to have an antidepressant effect when there is an increase in swimming time under administration.

[1] = FIG. 1, treatment groups vs saline-treated control, s.c., Dunnett's multiple comparison, 5% level

`Cc1c2c(nc3ccccc13)C[C@@]1(c3cccc(O)c3)CCN(C)C[C@@H]1C2` (relative stereo) [Compound 3, 2-methyl-4aα-(3-hydroxyphenyl)-11-methyl-1,2,3,4,4a,5,12,12aβ-octahydro-quinolino [2,3-g]isoquinoline] was tested, and the antianxiety effect (male SD rats) was “significant antianxiety effects” and the antidepressant effect (male ICR mice) was “significant antidepressant effect”.

For `Oc1cccc([C@]23CCN(CCc4ccccc4)C[C@@H]2Cc2cc4ccccc4nc2C3)c1` (relative stereo) [Compound 6, 2-phenethyl-4aα-(3-hydroxyphenyl)-1,2,3,4,4a,5,12,12aβ-octahydro-quinolino [2,3-g]isoquinoline], the antianxiety effect (male SD rats) was “significant antianxiety effects” and the antidepressant effect (male ICR mice) was “significant antidepressant effect”.

With `CN1CC[C@]2(c3cccc(O)c3)Cc3nc4ccccc4c(N)c3C[C@H]2C1` (relative stereo) [Compound 5, 2-methyl-4aα-(3-hydroxyphenyl)-11-amino-1,2,3,4,4a,5,12,12aβ-octahydro-quinolino,[2,3-g]isoquinoline] the antianxiety effect (male SD rats) was “significant antianxiety effects” and the antidepressant effect (male ICR mice) was “significant antidepressant effect”.

In the case of `CN1CC[C@]2(c3cccc(O)c3)Cc3nc4ccccc4cc3C[C@@H]2C1` [Compound 1, (4aS,12aS)-2-methyl-4a-(3-hydroxyphenyl)-1,2,3,4,4a,5,12,12a-octahydroquinolino [2,3-g]isoquinoline], the “ratio of the entries to open arms” value (male SD rats; [1]) is reported as “dose-dependent significant increase”, the “time spent in open arms” value (male SD rats; [1]) is reported as “dose-dependent significant increase” and the antianxiety effect (male SD rats) is reported as “confirmed to have an antianxiety effect”. For the same molecule, the swimming time (male ICR mice; FIG. 2, treatment groups vs saline-treated control, s.c., Dunnett's multiple comparison, 5% level) was “dose-dependent significant increase” and the antidepressant effect (male ICR mice) was “confirmed to have an antidepressant effect”.
